Target: T1, active p38 alpha enzyme (Upstate Biotechnology) (Homo sapiens, UniProt Q16539)
T1 construct: purchased Upstate Biotechnology
Assay: p38α biochemical assay (ATP turnover, luminescent detection, Cambrex PKlight)
Details: p38α biochemical assay, Table 1 Biological Activity
Procedure: The p38α biochemical assay employed is based on measurement of total ATP turnover following enzyme incubation with substrate in the presence of ATP with the use of a luminescent detection reagent (Cambrex PKlight). The assays were performed in 1536-well white opaque plates.
The final volume was 7.5005 μL as prepared prepared from the addition of 5 ul of kinase reaction (p38 alpah+MapkapK2+ATP) with 0.0005 μL compound dissolved in DMSO, and 2.5 ul of the detection reagent. Assay buffer contains the following reagents to give final concentration in the assay: 200 mM Tris, 100 mM MgCl2, 1.5 mM EGTA, 4 mM CaCl2, 20 mM MOPS, 1 mM EDTA, 1% glycerol, 0.1% B-Mecaptoethanol, and 1 mg/ml BSA. Test compounds are pinned using proprietary pintool technology (Kalypsys, Inc) and delivered as […] amounts into the 5 ul mixture of active p38 alpha enzyme (Upstate Biotechnology) and MapkapK2 (Upstate Biotechnology) whole protein as a substrate for phosphorylation in the presence of 1.4 uM final concentration ATP. Reactions are incubated at 30C for 2 hours and detection reagent is added in 2.5 ul/well amounts. Assay is read using a Perkin Elmer Viewlux.

T1 sequence (Q16539 whole entry): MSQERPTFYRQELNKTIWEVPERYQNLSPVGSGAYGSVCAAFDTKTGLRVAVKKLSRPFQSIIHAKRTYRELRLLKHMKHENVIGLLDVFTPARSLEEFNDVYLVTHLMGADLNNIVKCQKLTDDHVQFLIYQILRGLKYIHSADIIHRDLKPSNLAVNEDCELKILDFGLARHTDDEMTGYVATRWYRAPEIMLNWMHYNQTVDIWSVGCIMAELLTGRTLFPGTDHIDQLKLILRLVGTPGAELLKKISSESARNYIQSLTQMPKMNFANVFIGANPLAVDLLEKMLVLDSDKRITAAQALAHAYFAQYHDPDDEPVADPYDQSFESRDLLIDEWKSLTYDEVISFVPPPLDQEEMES

Compound	IC50 [µM]
CC(C)NC(=O)c1csc(-c2oc(CNC(=O)C3CCCCC3)nc2-c2ccc(F)cc2)n1 [Example 118]	≤ 1
CC(C)NC(=O)c1csc(-c2oc(CNC(=O)c3ccc(Oc4cccc(O)c4)cc3)nc2-c2ccc(F)cc2)n1 [Example 312]	≤ 1
Cc1c(C(=O)N2CCN(Cc3nc(-c4ccc(F)cc4)c(-c4nc(C(=O)NC(C)C)cs4)o3)CC2)oc2ccccc12 [Example 439]	> 1
Cc1cc(C(=O)NCc2nc(-c3ccc(F)cc3)c(-c3nc(C(=O)NC(C)C)cs3)o2)n[nH]1 [Example 116]	≤ 1
CC(C)NC(=O)c1csc(-c2oc(CN(C)C)nc2-c2ccc(F)cc2)n1 [Example 42, 2-|2-Dimethylaminomethyl-4-(4-fluoro-phenyl)-oxazol-5-yl|-thiazole-4-carboxylic acid isopropylamide]	≤ 1
CC(C)NC(=O)c1csc(-c2c(-c3ccc(F)cc3)noc2CNC(=O)c2cc3ccccc3s2)n1 [Example 682]	> 1
CC(=O)Oc1ccc(C(=O)N2CCN(Cc3nc(-c4ccc(F)cc4)c(-c4nc(C(=O)NC(C)C)cs4)o3)CC2)cc1 [Example 450]	> 1
CC(C)NC(=O)c1csc(-c2c(-c3ccc(F)cc3)noc2CNC(=O)CCc2ccccc2O)n1 [Example 656]	> 1
CC(C)NC(=O)c1csc(-c2oc(CN3CCN(C(=O)C(C)NC(=O)OC(C)(C)C)CC3)nc2-c2ccc(F)cc2)n1 (centres unmarked) [Example 485]	> 1
CC(C)NC(=O)c1csc(-c2oc(CNC(=O)c3cc([N+](=O)[O-])ccc3O)nc2-c2ccc(F)cc2)n1 [Example 234]	≤ 1
CC(C)NC(=O)c1csc(-c2oc(CN3CCN(C(=O)C4CCCCN4C(=O)OC(C)(C)C)CC3)nc2-c2ccc(F)cc2)n1 (centres unmarked) [Example 548]	> 1
CCC(=O)C(=O)N1CCN(Cc2nc(-c3ccc(F)cc3)c(-c3nc(C(=O)NC(C)C)cs3)o2)CC1 [Example 339]	> 1
CC(C)NC(=O)c1csc(-c2c(-c3ccc(F)cc3)noc2CNC(=O)c2ccc(C=O)cc2)n1 [Example 608]	> 1
CC(C)NC(=O)c1csc(-c2oc(CN3CCN(C(=O)c4cc(C(C)C)cc(C(C)C)c4O)CC3)nc2-c2ccc(F)cc2)n1 [Example 541]	> 1
CC(C)NC(=O)c1csc(-c2c(-c3ccc(F)cc3)noc2CNC(=O)c2ccnc(Cl)c2)n1 [Example 629]	> 1
CC(C)NC(=O)c1csc(-c2oc(CN3CCN(C(=O)c4ccccc4Cc4ccccc4)CC3)nc2-c2ccc(F)cc2)n1 [Example 524]	≤ 1
CC(=O)c1cccc(C(=O)NCc2nc(-c3ccc(F)cc3)c(-c3nc(C(=O)NC(C)C)cs3)o2)c1 [Example 169]	> 1
CC(C)NC(=O)c1csc(-c2oc(CNC(=O)CCc3cccc(C(F)(F)F)c3)nc2-c2ccc(F)cc2)n1 [Example 300]	≤ 1
CC(C)NC(=O)c1csc(-c2oc(CNC(=O)c3ccncc3)nc2-c2ccc(F)cc2)n1 [Example 113]	≤ 1
CC(=O)Oc1ccccc1C(=O)N1CCN(Cc2nc(-c3ccc(F)cc3)c(-c3nc(C(=O)NC(C)C)cs3)o2)CC1 [Example 453]	> 1
CCCOc1ccc(C(=O)NCc2nc(-c3ccc(F)cc3)c(-c3nc(C(=O)NC(C)C)cs3)o2)cc1 [Example 218]	> 1

Same assay, conditions: p38α kinase; Table 1 Biological Activity

Compound	IC50 [µM]
Cc1ccc(Cl)cc1N1CCN(Cc2onc(-c3ccc(F)cc3)c2-c2nc(C(=O)NC(C)C)cs2)CC1 [Example 1610]	> 1
CC(C)NC(=O)c1csc(-c2c(-c3ccc(F)cc3)n[nH]c2C2CCN(C(=O)c3cc(Cl)ccc3O)CC2)n1 [Example 910]	> 1
CCC(CO)NC(=O)c1csc(-c2c(-c3ccc(F)cc3)n[nH]c2C2CCNCC2)n1 (centres unmarked) [Example 2052]	> 1
CC(C)NC(=O)c1csc(-c2c(-c3ccc(F)cc3)n[nH]c2C2CCN(C(=O)c3cc([N+](=O)[O-])ccc3Cl)CC2)n1 [Example 985]	> 1
COc1ccc(CNCc2nc(-c3ccc(F)cc3)c(-c3nc(C(=O)NC(C)C)cs3)o2)cc1O [Example 1173]	≤ 1
Cc1ccc(C)c(CNCc2onc(-c3ccc(F)cc3)c2-c2nc(C(=O)NC(C)C)cs2)c1 [Example 1445]	> 1
CC(C)NC(=O)c1csc(-c2c(-c3ccc(F)cc3)n[nH]c2C2CCN(C(=O)Cc3c(F)cccc3F)CC2)n1 [Example 907]	> 1
CC(C)NC(=O)c1csc(-c2oc(CN3CCc4ccccc4C3)nc2-c2ccc(F)cc2)n1 [Example 1224]	> 1
Cc1nc(-c2ccc(F)cc2)c(-c2nc(C(=O)NN3CCN(C)CC3)cs2)s1 [Example 1749]	> 1
CC(C)NC(=O)c1csc(-c2c(-c3ccc(F)cc3)n[nH]c2C2CCN(C(=O)C(C)(C)O)CC2)n1 [Example 2166, 2-{3-(4-Fluoro-phenyl)-5-|1-(2-hydroxy-2-methyl-propionyl)-piperidin-4-yl|-1H-pyrazol-4-yl}-thiazole-4-carboxylic acid isopropylamide]	≤ 1
CC(C)NC(=O)c1csc(-c2oc(CNc3cc(F)c(F)cc3F)nc2-c2ccc(F)cc2)n1 [Example 1347]	> 1
CC(C)NC(=O)c1csc(-c2c(-c3ccc(F)cc3)noc2CNC2CCCc3ccccc32)n1 (centres unmarked) [Example 1378]	> 1
CC(C)NC(=O)c1csc(-c2oc(CNCCCc3ccccc3)nc2-c2ccc(F)cc2)n1 [Example 1119]	> 1
CC(C)NC(=O)c1csc(-c2c(-c3ccc(F)cc3)c(=O)[nH]n2C2CCN(C(=O)OCc3ccccc3)CC2)n1 [Example 2183, 4-|4-(4-Fluoro-phenyl)-5-(4-isopropylcarbamoyl-thiazol-2-yl)-3-oxo-2,3-dihydro-pyrazol-1-yl|-piperidine-1-carboxylic acid benzyl ester]	> 1
Cc1nc(-c2ccc(F)cc2)c(-c2nc(C(=O)NCCc3ccc(O)cc3)cs2)s1 [Example 1777]	≤ 1
COc1cc2c(cc1OC)CN(Cc1onc(-c3ccc(F)cc3)c1-c1nc(C(=O)NC(C)C)cs1)CC2 [Example 1621]	> 1
COc1ccc(CNCc2nc(-c3ccc(F)cc3)c(-c3nc(C(=O)NC(C)C)cs3)o2)cc1OC [Example 1162]	> 1
COc1cc(CNC(=O)c2csc(-c3c(-c4ccc(F)cc4)n[nH]c3C3CCNCC3)n2)cc(OC)c1 [Example 2138]	> 1
Cc1nc(-c2ccc(F)cc2)c(-c2nc(C(=O)NCc3cccs3)cs2)s1 [Example 1743]	≤ 1

Compound	IC50 [µM]
Cc1nc(-c2ccc(F)cc2)c(-c2nc(C(=O)N3CCN(c4ccccc4)CC3)cs2)s1 [Example 1892]	> 1
COc1ccc(NCc2onc(-c3ccc(F)cc3)c2-c2nc(C(=O)NC(C)C)cs2)cc1 [Example 1648]	> 1
CCc1cccc(C)c1NC(=O)c1csc(-c2sc(C)nc2-c2ccc(F)cc2)n1 [Example 1985]	> 1
Cc1nc(-c2ccc(F)cc2)c(-c2nc(C(=O)Nc3ncccc3C)cs2)s1 [Example 1962]	> 1
CCN(CCCCO)Cc1onc(-c2ccc(F)cc2)c1-c1nc(C(=O)NC(C)C)cs1 [Example 1540]	> 1
CC(C)NC(=O)c1csc(-c2c(-c3ccc(F)cc3)noc2CNCCC2CCCN2C)n1 (centres unmarked) [Example 1438]	> 1
COc1ccc(-c2ccccc2)cc1NCc1onc(-c2ccc(F)cc2)c1-c1nc(C(=O)NC(C)C)cs1 [Example 1695]	≤ 1
CC(C)NC(=O)c1csc(-c2c(-c3ccc(F)cc3)n[nH]c2C2CCN(C(=O)c3ccncc3Cl)CC2)n1 [Example 870]	≤ 1
Cc1nc(Br)sc1C(=O)N1CCC(c2[nH]nc(-c3ccc(F)cc3)c2-c2nc(C(=O)NC(C)C)cs2)CC1 [Example 1016]	> 1
CC(C)NC(=O)c1csc(-c2oc(CNCc3ccccc3)nc2-c2ccc(F)cc2)n1 [Example 1084]	> 1
CC(C)NC(=O)c1csc(-c2c(-c3ccc(F)cc3)n[nH]c2C2CCN(C(=O)C3CCc4ccccc43)CC2)n1 (centres unmarked) [Example 878]	> 1
Cc1ccc(C)c(CNCc2nc(-c3ccc(F)cc3)c(-c3nc(C(=O)NC(C)C)cs3)o2)c1 [Example 1114]	> 1
O=C(NC1CCCC1)c1csc(-c2c(-c3ccc(F)cc3)ncn2C2CCNCC2)n1 [Example 2190, 2-|5-(4-Fluoro-phenyl)-3-piperidin-4-yl-3H-imidazol-4-yl|-thiazole-4-carboxylic acid cyclopentylamide]	≤ 1
CC(C)NC(=O)c1csc(-c2c(-c3ccc(F)cc3)noc2CN2CCOCC2)n1 [Example 1509]	> 1
CC(=O)c1ccc(C(=O)N2CCC(c3[nH]nc(-c4ccc(F)cc4)c3-c3nc(C(=O)NC(C)C)cs3)CC2)cc1 [Example 881]	> 1
CC(=O)N1CCC(c2[nH]nc(-c3ccc(F)cc3)c2-c2nc(C(=O)NC(C)C)cs2)CC1 [Example 2167, 2-|5-(1-Acetyl-piperidin-4-yl)-3-(4-fluoro-phenyl)-1H-pyrazol-4-yl|-thiazole-4-carboxylic acid isopropylamide]	≤ 1
CC(C)NC(=O)c1csc(-c2c(-c3ccc(F)cc3)n[nH]c2C2CCN(C(=O)C(Cc3ccccc3)NC(=O)OC(C)(C)C)CC2)n1 (centres unmarked) [Example 1045]	> 1
Cc1nc(-c2ccc(F)cc2)c(-c2nc(C(=O)NC3CONC3=O)cs2)s1 (centres unmarked) [Example 1736]	> 1
CC(C)NC(=O)c1csc(-c2c(-c3ccc(F)cc3)n[nH]c2C2CCN(C(=O)c3ccc(Cl)cc3O)CC2)n1 [Example 909]	> 1
